In US11123334B2 (priority 2018, dated 2021):

Legend:
[1] = test system: rhesus monkeys; experiment: Heroin-induced respiratory depression, head plethysmograph, seated monkeys; details: for duration in reversing and protecting against heroin-induced respiratory depression: FIG. 2; for antagonism of respiratory-depressant effects of heroin: day after (24 hours after) antagonist administration
[2] = test system: rhesus monkeys; experiment: Intravenous drug self-administration (heroin or cocaine), fixed-ratio 30 schedule; format: in vivo; details: for duration of action on responding for heroin (in words): after a single administration; for responding for cocaine: naltrexone 0.032 mg/kg, MCAM 0.32 mg/kg, cocaine 0.032 mg/kg/infusion; for responding for heroin: session following s.c. pretreatment, heroin 0.0032 mg/kg/infusion
[3] = biological target: T1, μ opioid receptors (Mus musculus, UniProt P42866); details: cited from earlier work
T1 construct: host or cells: live mouse (endogenous receptor)
T1 sequence (P42866 whole entry): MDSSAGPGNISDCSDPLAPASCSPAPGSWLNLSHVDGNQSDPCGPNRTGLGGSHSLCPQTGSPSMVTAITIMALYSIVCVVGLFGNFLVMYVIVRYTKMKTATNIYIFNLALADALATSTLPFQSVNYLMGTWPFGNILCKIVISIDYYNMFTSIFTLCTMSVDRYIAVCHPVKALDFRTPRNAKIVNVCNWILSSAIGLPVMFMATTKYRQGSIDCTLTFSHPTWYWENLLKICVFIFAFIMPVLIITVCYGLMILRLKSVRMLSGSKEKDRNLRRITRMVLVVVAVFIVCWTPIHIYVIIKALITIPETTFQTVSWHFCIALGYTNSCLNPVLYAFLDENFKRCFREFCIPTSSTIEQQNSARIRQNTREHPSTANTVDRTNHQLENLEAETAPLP

Row | SMILES | duration in reversing and protecting against heroin-induced respiratory depression [1] | duration of action on responding for heroin (in words) [2] | time responding for heroin remained decreased ([2]; after a single injection of antagonist) | responding for cocaine [2] | responding for heroin [2] | antagonism of morphine ([3]; 48 hours later) | effect on antinociception of 1000 mg/kg morphine ([3]; one hour after administration) | reversal of opioid agonist side effects (respiratory depression) ([1]; 0.32 mg/kg subcutaneously, monkeys received heroin 0.1-1.0 mg/kg) | respiratory-depressant effects of heroin after antagonist ([1]; 4 days after administration of antagonist) | antagonism of respiratory-depressant effects of heroin [1] | duration of action on responding for heroin (in words) ([2]; listed as Naltrexone) | decrease of respiration by heroin ([1]; monkeys breathing air, largest heroin dose tested, s.c.)
1 | C=CCN1CC[C@]23c4c5ccc(O)c4O[C@H]2C(=O)CC[C@@]3(O)[C@H]1C5 [naloxone, reference compound] | short duration | – | – | – | – | – | – | – | – | – | – | –
2 | Cc1ccc(/C=C/C(=O)N[C@@]23CCC(=O)[C@@H]4Oc5c(O)ccc6c5[C@@]42CCN(CC2CC2)[C@@H]3C6)cc1 [MCAM, methocinnamox] | long duration | more than one week | up to 8 days | did not affect responding for cocaine | decreased responding for heroin | marked antagonism of morphine | prevented any antinociceptive effect | reversed | not affected | continued to antagonize | – | –
3 | O=C1CC[C@@]2(O)[C@H]3Cc4ccc(O)c5c4[C@@]2(CCN3CC2CC2)[C@H]1O5 [naltrexone, reference compound] | – | less than one day | – | did not affect responding for cocaine | decreased responding for heroin | – | – | – | – | no longer effective | returning to baseline levels the next day | –
4 | CC(=O)Oc1ccc2c3c1O[C@H]1[C@@H](OC(C)=O)C=C[C@H]4[C@@H](C2)N(C)CC[C@@]341 [heroin, reference compound] | – | – | – | – | – | – | – | – | – | – | – | ≤ 70 % of control
